System: 628569-122-R-J1-PDC complex spheroid viability
Test: Anticancer human tumor 628569-122-R-J1-PDC patient-derived head and neck squamous carcinoma cell line growth inhibition [CLK]
Conditions: for IC50: curve of first compound; for viability, T/C: stronger effect = lower value
Summary of the method: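 Patient-derived tumor cells grown as complex spheroids with HUVEC endothelial cells and mesenchymal stem cells, treated with drug combinations. Concentrations descend in half-log steps from near clinical Cmax, or from 10 microM if Cmax unknown.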

[1] = second compound 0.0316 µM, first compound 0.0316 µM
[2] = second compound 0.0316 µM, first compound 0.1 µM
[3] = second compound 0.0316 µM, first compound 0.316 µM
[4] = second compound 0.0316 µM, first compound 1 µM
[5] = second compound 0.0316 µM, first compound 3.16 µM
[6] = second compound 0.0316 µM, first compound 10 µM
[7] = second compound 0.1 µM, first compound 0.0316 µM
[8] = second compound 0.1 µM, first compound 0.1 µM
[9] = second compound 0.1 µM, first compound 0.316 µM
[10] = second compound 0.1 µM, first compound 1 µM
[11] = second compound 0.1 µM, first compound 3.16 µM
[12] = second compound 0.1 µM, first compound 10 µM
[13] = second compound 0.316 µM, first compound 0.0316 µM
[14] = second compound 0.316 µM, first compound 0.1 µM
[15] = second compound 0.316 µM, first compound 0.316 µM
[16] = second compound 0.316 µM, first compound 1 µM
[17] = second compound 0.316 µM, first compound 3.16 µM
[18] = second compound 0.316 µM, first compound 10 µM
[19] = second compound 1 µM, first compound 0.0316 µM
[20] = second compound 1 µM, first compound 0.1 µM
[21] = second compound 1 µM, first compound 0.316 µM
[22] = second compound 1 µM, first compound 1 µM
[23] = second compound 1 µM, first compound 3.16 µM
[24] = second compound 1 µM, first compound 10 µM
[25] = second compound 3.16 µM, first compound 0.0316 µM
[26] = second compound 3.16 µM, first compound 0.1 µM
[27] = second compound 3.16 µM, first compound 0.316 µM
[28] = second compound 3.16 µM, first compound 1 µM
[29] = second compound 3.16 µM, first compound 3.16 µM
[30] = second compound 3.16 µM, first compound 10 µM
[31] = second compound 10 µM, first compound 0.0316 µM
[32] = second compound 10 µM, first compound 0.1 µM
[33] = second compound 10 µM, first compound 0.316 µM
[34] = second compound 10 µM, first compound 1 µM
[35] = second compound 10 µM, first compound 3.16 µM
[36] = second compound 10 µM, first compound 10 µM
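Further: spheroids exposed to agents for seven days before readout.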
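Wherever viability, T/C is given: 100% = DMSO vehicle control viability.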

Question: What does the source list for `CC(=O)O[C@H]1C(=O)[C@@]2(C)[C@H]([C@H](OC(=O)c3ccccc3)[C@]3(O)C[C@H](OC(=O)[C@H](O)[C@@H](NC(=O)c4ccccc4)c4ccccc4)C(C)=C1C3(C)C)[C@]1(OC(C)=O)CO[C@@H]1C[C@@H]2O` + CN1CCN(c2cc(C(=O)Nc3cc4cc(-c5cnn(C)c5)ccc4cn3)ccn2)CC1?
Answer: IC50 (second compound 0.0316 µM): < 0.0316 µM; IC50 (second compound 0.1 µM): < 0.0316 µM; IC50 (second compound 0.316 µM): < 0.0316 µM; IC50 (second compound 1 µM): < 0.0316 µM; IC50 (second compound 3.16 µM): < 0.0316 µM; IC50 (second compound 10 µM): < 0.0316 µM; viability, T/C [1]: 39.9%; viability, T/C [2]: 34.4%; viability, T/C [3]: 38%; viability, T/C [4]: 41%; viability, T/C [5]: 41.6%; viability, T/C [6]: 54%; viability, T/C [7]: 37.5%; viability, T/C [8]: 33.4%; viability, T/C [9]: 39.5%; viability, T/C [10]: 42.7%; viability, T/C [11]: 47.2%; viability, T/C [12]: 67.3%; viability, T/C [13]: 33.2%; viability, T/C [14]: 41.9%; viability, T/C [15]: 41.7%; viability, T/C [16]: 41%; viability, T/C [17]: 33.7%; viability, T/C [18]: 49.4%; viability, T/C [19]: 4.9%; viability, T/C [20]: 5.86%; viability, T/C [21]: 4.18%; viability, T/C [22]: 3.31%; viability, T/C [23]: 3.36%; viability, T/C [24]: 4.26%; viability, T/C [25]: 5.69%; viability, T/C [26]: 4.99%; viability, T/C [27]: 6.92%; viability, T/C [28]: 3.95%; viability, T/C [29]: 5.22%; viability, T/C [30]: 3.46%; viability, T/C [31]: 1.88%; viability, T/C [32]: 4.8%; viability, T/C [33]: 3.63%; viability, T/C [34]: 4.24%; viability, T/C [35]: 3.42%; viability, T/C [36]: 1.77%

Question: What does the source list for `CCc1c2c(nc3ccc(O)cc13)-c1cc3c(c(=O)n1C2)COC(=O)[C@]3(O)CC` + CN1CCN(c2cc(C(=O)Nc3cc4cc(-c5cnn(C)c5)ccc4cn3)ccn2)CC1?
Answer: IC50 (second compound 0.0316 µM): 0.0902 µM; IC50 (second compound 0.1 µM): 0.107 µM; IC50 (second compound 0.316 µM): < 0.00316 µM; IC50 (second compound 1 µM): < 0.00316 µM; IC50 (second compound 3.16 µM): < 0.00316 µM; IC50 (second compound 10 µM): < 0.00316 µM; viability, T/C (second compound 0.0316 µM, first compound 0.00316 µM): 61.5%; viability, T/C (second compound 0.0316 µM, first compound 0.01 µM): 53.1%; viability, T/C [1]: 50.2%; viability, T/C [2]: 52.2%; viability, T/C [3]: 35.8%; viability, T/C [4]: 9.26%; viability, T/C (second compound 0.1 µM, first compound 0.00316 µM): 50.9%; viability, T/C (second compound 0.1 µM, first compound 0.01 µM): 49.9%; viability, T/C [7]: 47.9%; viability, T/C [8]: 58.3%; viability, T/C [9]: 23.7%; viability, T/C [10]: 5.24%; viability, T/C (second compound 0.316 µM, first compound 0.00316 µM): 40.4%; viability, T/C (second compound 0.316 µM, first compound 0.01 µM): 36.4%; viability, T/C [13]: 15%; viability, T/C [14]: 9.88%; viability, T/C [15]: 4.62%; viability, T/C [16]: 6.11%; viability, T/C (second compound 1 µM, first compound 0.00316 µM): 5.48%; viability, T/C (second compound 1 µM, first compound 0.01 µM): 4.65%; viability, T/C [19]: 8.79%; viability, T/C [20]: 7.58%; viability, T/C [21]: 5.31%; viability, T/C [22]: 2.58%; viability, T/C (second compound 3.16 µM, first compound 0.00316 µM): 9.55%; viability, T/C (second compound 3.16 µM, first compound 0.01 µM): 6.32%; viability, T/C [25]: 5.67%; viability, T/C [26]: 8.5%; viability, T/C [27]: 4.73%; viability, T/C [28]: 2.6%; viability, T/C (second compound 10 µM, first compound 0.00316 µM): 1.57%; viability, T/C (second compound 10 µM, first compound 0.01 µM): 2.38%; viability, T/C [31]: 4%; viability, T/C [32]: 4.91%; viability, T/C [33]: 3.1%; viability, T/C [34]: 0.67%

Question: Which IC50 (second compound 0.0316 µM) does the source give for `O=c1[nH]cc(F)c(=O)[nH]1` + CN1CCN(c2cc(C(=O)Nc3cc4cc(-c5cnn(C)c5)ccc4cn3)ccn2)CC1 here?
Answer: The IC50 was > 10 µM.

Question: What about the IC50 (second compound 0.1 µM) of the same compound?
Answer: The IC50 was > 10 µM.

Question: And the IC50 (second compound 0.316 µM)?
Answer: The IC50 was < 0.0316 µM.

Question: And the IC50 (second compound 1 µM)?
Answer: The IC50 was < 0.0316 µM.

Question: And the IC50 (second compound 3.16 µM)?
Answer: Its IC50 is < 0.0316 µM.

Question: And the IC50 (second compound 10 µM)?
Answer: Its IC50 is < 0.0316 µM.

Question: And the viability, T/C [1]?
Answer: The viability, T/C was 84.2%.

Question: What about the viability, T/C [2] of the same compound?
Answer: Its viability, T/C is 97.8%.

Question: What about the viability, T/C [3] of the same compound?
Answer: Its viability, T/C is 93.7%.

Question: And the viability, T/C [4]?
Answer: Its viability, T/C is 102%.

Question: What about the viability, T/C [5] of the same compound?
Answer: The viability, T/C was 88.8%.

Question: And the viability, T/C [6]?
Answer: The viability, T/C was 69.3%.

Question: What about the viability, T/C [7] of the same compound?
Answer: Its viability, T/C is 64.1%.

Question: What about the viability, T/C [8] of the same compound?
Answer: The viability, T/C was 69.9%.

Question: What about the viability, T/C [9] of the same compound?
Answer: The viability, T/C was 70.5%.

Question: And the viability, T/C [10]?
Answer: Its viability, T/C is 71.6%.

Question: What about the viability, T/C [11] of the same compound?
Answer: The viability, T/C was 64.8%.

Question: And the viability, T/C [12]?
Answer: Its viability, T/C is 54.7%.

Question: What about the viability, T/C [13] of the same compound?
Answer: Its viability, T/C is 35.7%.

Question: What about the viability, T/C [14] of the same compound?
Answer: The viability, T/C was 30.7%.

Question: And the viability, T/C [15]?
Answer: The viability, T/C was 37.5%.

Question: And the viability, T/C [16]?
Answer: Its viability, T/C is 44.7%.

Question: And the viability, T/C [17]?
Answer: The viability, T/C was 38.3%.

Question: What about the viability, T/C [18] of the same compound?
Answer: Its viability, T/C is 29.8%.

Question: And the viability, T/C [19]?
Answer: The viability, T/C was 12.8%.

Question: And the viability, T/C [20]?
Answer: Its viability, T/C is 6.16%.

Question: And the viability, T/C [21]?
Answer: Its viability, T/C is 6.71%.

Question: What about the viability, T/C [22] of the same compound?
Answer: Its viability, T/C is 8.95%.

Question: And the viability, T/C [23]?
Answer: Its viability, T/C is 7.13%.

Question: And the viability, T/C [24]?
Answer: Its viability, T/C is 5.19%.

Question: And the viability, T/C [25]?
Answer: The viability, T/C was 9.61%.

Question: And the viability, T/C [26]?
Answer: The viability, T/C was 7.33%.

Question: What about the viability, T/C [27] of the same compound?
Answer: The viability, T/C was 9.99%.

Question: What about the viability, T/C [28] of the same compound?
Answer: Its viability, T/C is 8.76%.

Question: What about the viability, T/C [29] of the same compound?
Answer: Its viability, T/C is 12%.

Question: And the viability, T/C [30]?
Answer: The viability, T/C was 4.06%.

Question: And the viability, T/C [31]?
Answer: Its viability, T/C is 11%.

Question: What about the viability, T/C [32] of the same compound?
Answer: Its viability, T/C is 2.54%.

Question: What about the viability, T/C [33] of the same compound?
Answer: The viability, T/C was 4.42%.

Question: What about the viability, T/C [34] of the same compound?
Answer: Its viability, T/C is 2.63%.

Question: And the viability, T/C [35]?
Answer: Its viability, T/C is 2.63%.

Question: And the viability, T/C [36]?
Answer: Its viability, T/C is 3.59%.

— PubChem BioAssay AID2060611 (Molecular Pharmacology Branch, DTP, NCI, 2025)
